# Where “and” joins values, the source holds several entries; their conditions need not be identical. Equal entries are not always repeated.
# Experiments:
# CCK-A = molecular target: T1, CCK-A (Cavia porcellus, UniProt Q63931); assay: Anti-CCK-A activity on guinea-pig gall bladder stimulated in vitro by CCK-8
# T1 construct: A longitudinal strip of guinea-pig gall-bladder was put in a bath for isolated organs; from tissue; host or cells: guinea-pig gall bladder longitudinal strip
# T1 sequence (Q63931 1-430): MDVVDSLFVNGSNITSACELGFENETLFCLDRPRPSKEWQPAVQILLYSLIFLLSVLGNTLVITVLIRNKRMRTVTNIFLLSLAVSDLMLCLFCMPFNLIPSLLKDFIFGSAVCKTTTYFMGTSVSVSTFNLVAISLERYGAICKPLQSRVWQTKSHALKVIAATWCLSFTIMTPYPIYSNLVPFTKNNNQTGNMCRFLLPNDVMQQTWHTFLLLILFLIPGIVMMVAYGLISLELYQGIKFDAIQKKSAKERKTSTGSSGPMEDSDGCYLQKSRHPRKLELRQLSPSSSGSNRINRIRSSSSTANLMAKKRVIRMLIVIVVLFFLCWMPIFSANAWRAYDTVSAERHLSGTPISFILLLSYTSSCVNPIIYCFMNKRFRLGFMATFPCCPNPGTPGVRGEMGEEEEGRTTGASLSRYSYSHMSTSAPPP
# Experimental: The experimental model used was guinea-pig gall bladder stimulated in vitro by CCK-8, with the use of lorglumide as the reference standard. A longitudinal strip of guinea-pig gall-bladder was put in a bath for isolated organs in the presence of Krebs buffer at a temperature of 32° C., with continuous oxygenation with an oxygen-CO2 mixture (95-[…]). The isometric contractions were detected by means of a force transducer and recorded.
# [1] = test system: acid secretion induced by pentagastrin; assay: Acid secretion induced by pentagastrin in the anaesthetized rat; type: in vivo; conditions: for ED50: iv, 1 h, I.V. bolus, pentagastrin 30 mcg/kg/h, read-out: Activity (ID50), inhibition of the acid secretion induced by pentagastrin
# Experimental: The activity of the compounds of the invention against gastric secretion performed by means of a mechanism with an antigastrin effect, was examined in vivo in anaesthetized rats with the use of male animals weighing about 200 g. Gastric secretion was stimulated with pentagastrin and Lai's method [Gut 5, (1964), 327-341 ] was used, with slight modification.
# After tracheotomy, the oesophagus and duodenum were cannulated. A tepid solution (37° C.) of 0.25 mM NaOH was perfused and was passed through the stomach by means of a peristaltic pump at a constant flow-rate of 1 ml/minute. After stabilization for 20 minutes, the stimulant, dissolved in a physiological solution, was perfused for 120 minutes at a dose of 30 mcg/kg/h, in a volume of 0.95 ml/hour. After perfusion for 60 minutes (the basal stimulation), the product under test was administered intravenously (I.V.) as a bolus and perfusion of the stimulant was continued for a further 60 minutes. The acid secretion was recorded continuously as a function of time.
# The activity of the product was evaluated as the percentage reduction of secreted acidity after the administration of the product, in comparison with the basal acidity measured during the first 60 minutes of collection in the presence of pentagastrin alone.
# The antagonistic compounds tested were administered in various doses so that an ID50, that is, the dose (in mg/kg I.V.) which could inhibit the effect of pentagastrin by 50%, could be calculated.
# [2] = molecular target: T2, gastrin receptors or type-B cholecystokinin (CCK-B) receptors (Oryctolagus cuniculus, UniProt P46627); assay: Inhibition of the gastrin-induced increase of cytosolic calcium in rabbit gastric mucous-membrane cells (Fura 2); type: cell-based; conditions: for Ratio IC50 Binding cortex / IC50 (gastric mucous cells): binding values taken from Table 3; for IC50, inhibition of the increase of cytosolic calcium: rabbit gastric mucous cells enriched in parietal cells, gastrin 5×10^-8
# T2 construct: Rabbit gastric mucous-membrane cells were prepared by conventional techniques; endogenous in cells; host or cells: freshly isolated rabbit gastric mucosal cells, enriched by elutriation to about 70% parietal cells
# T2 sequence (P46627 1-452): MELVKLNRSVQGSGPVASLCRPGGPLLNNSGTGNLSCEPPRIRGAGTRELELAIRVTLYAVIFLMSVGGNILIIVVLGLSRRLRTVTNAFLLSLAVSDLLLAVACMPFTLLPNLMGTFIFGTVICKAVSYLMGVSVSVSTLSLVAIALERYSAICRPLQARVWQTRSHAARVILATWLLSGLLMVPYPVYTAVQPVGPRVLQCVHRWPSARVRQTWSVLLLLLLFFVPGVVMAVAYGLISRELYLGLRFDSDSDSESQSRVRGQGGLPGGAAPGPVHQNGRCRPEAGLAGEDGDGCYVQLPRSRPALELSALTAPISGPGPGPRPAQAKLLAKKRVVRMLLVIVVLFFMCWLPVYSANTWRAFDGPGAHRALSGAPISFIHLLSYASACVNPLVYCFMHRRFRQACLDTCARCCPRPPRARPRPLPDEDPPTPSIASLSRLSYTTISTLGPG
# Text: The parietal cells of the gastric mucous membrane are responsible for the secretion of HCl. They have specific membrane receptors which can be activated by gastrin and which have been defined as gastrin receptors or type-B cholecystokinin (CCK-B) receptors. Since it has been observed that the activation of the CCK-B receptors by gastrin leads to an increase in the cytosolic levels of calcium ions, a technique involving the measurement of the increase in intracellular calcium induced by gastrin in the presence and in the absence of the compounds of the invention was used as an index of the antigastrin activity of the compounds. Rabbit gastric mucous-membrane cells were prepared by conventional techniques with the use of collagenase and pronase as digestive enzymes. The cellular preparation obtained by the enzymatic digestion was composed of parietal cells, zymogen cells and mucous-membrane cells. […] The cells were then washed and resuspended in a saline solution buffered with HEPES containing, in mM: […] Each measurement was carried out on cells in suspension (0.8×10^6 /ml) at a thermostatically-controlled temperature of 37° C. and with constant magnetic stirring. The fluorescence was recorded with the use of a spectrofluorometer. The operative wavelengths were 340/380 nm for excitation and 505 nm for emission. […] Biol. Chem. 260 (1985), 3440]. […] The results thus obtained for some compounds of the invention are given in Table 4, which also gives an index derived from the ratio between the peripheral antigastrin activity just described and the displacement activity found in the test on binding to the guinea-pig cortex receptors described above.
# central CCK-B receptor = molecular target: T3, central CCK-B receptor (Cavia porcellus, UniProt H0VZC5); assay: Inhibition of the binding of [3-H][N-methyl-N-leucine]CCK-8 to guinea-pig cortical membranes; conditions: guinea-pig cortical membranes; for IC50: 150 minutes at 25° C.
# T3 construct: Cerebral cortices of male white guinea-pigs were thus used; from tissue; host or cells: cerebral cortex membranes of male white guinea-pigs
# T3 sequence (H0VZC5 1-426): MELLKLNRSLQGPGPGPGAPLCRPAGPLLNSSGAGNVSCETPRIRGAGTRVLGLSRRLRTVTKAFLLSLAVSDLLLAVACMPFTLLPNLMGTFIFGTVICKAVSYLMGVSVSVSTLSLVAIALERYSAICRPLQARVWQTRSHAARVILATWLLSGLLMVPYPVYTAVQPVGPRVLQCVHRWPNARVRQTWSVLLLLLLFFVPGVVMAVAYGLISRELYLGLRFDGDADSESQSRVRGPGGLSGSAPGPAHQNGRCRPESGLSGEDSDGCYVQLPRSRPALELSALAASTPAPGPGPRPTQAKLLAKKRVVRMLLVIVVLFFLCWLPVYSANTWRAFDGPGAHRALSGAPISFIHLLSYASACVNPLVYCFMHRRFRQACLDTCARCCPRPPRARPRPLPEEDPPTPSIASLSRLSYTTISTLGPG
# Experimental: The ability of the compounds of the invention to interact with the central CCK-B receptor was evaluated with the use of non-sulphated [3-H] […] 225 (3) (1990), 1278-1286].
# Cerebral cortices of male white guinea-pigs were thus used, according to the method mentioned above, so as to obtain a membrane content corresponding to about 300 mcg of proteins/ml. The membranes were incubated together with the radioactive tracer and the compounds under test for 150 minutes at 25° C. After the supernatant had been discarded, the radioactivity associated with the pellet was determined with a liquid scintillator. The specific binding was determined as the difference between the binding in the absence and in the presence of 5.10^-6 M CCK-8.
Ratio I/II (CCK-A IC50 / CCK-B IC50) (CCK-A; gall bladder IC50 over gastric mucous cells IC50),"IC50 (CCK-A; guinea-pig gall bladder in vitro, CCK-8 10 ng/ml, read-out: CCK-A-antagonistic activity IC50 (I))",Ratio IC50 Binding cortex / IC50 (gastric mucous cells) [2],"CCK-B-antagonistic activity IC50 (II) ([2]; data taken from Table 4 (rabbit gastric mucous cells), reprinted in Table 6)","IC50, inhibition of the increase of cytosolic calcium [2]","inhibition of the binding of [N-methyl-N-leucine]CCK-8, result in words (central CCK-B receptor)",IC50 (central CCK-B receptor),Compound,ED50 [1],antigastrin activity relative to the diastereoisomer at the carbon atom (**) ([1]; pentagastrin-induced acid secretion)
35.5,13.5 µM,6.3,0.38 µmol/L,0.38 µmol/L,,,"O=C(O)CC[C@@H](NC(=O)c1cc(Cl)cc(Cl)c1)C(=O)N1CCC2(CCCC2)CC1 [CR 2194, (R)-5-(8-azaspiro[4.5]decan-8-yl)-4-(3,5-dichloro-benzoylamino)-5-oxopentanoic acid, reference compound]",11 mg/kg and 24.9 µmol/kg,
,,1.7,,0.06 µmol/L,potent inhibitors,100 nM,CN(C(=O)CC[C@@H](NC(=O)c1cc(Cl)cc(Cl)c1)C(=O)N1CCC2(CCCC2)CC1)[C@H](Cc1ccccc1)C(=O)O [Compound 12],13.6 mg/kg and 24.2 µmol/kg,
,,17.0,,0.02 µmol/L,,340 nM,O=C(O)C[C@H](Cc1ccccc1)NC(=O)CC[C@@H](NC(=O)c1cc(Cl)cc(Cl)c1)C(=O)N1CCC2(CCCC2)CC1 [Compound 14],9.7 mg/kg and 16.1 µmol/kg,about 1.5 times
